Measurements reported in patent US20030064385A1, “Genes expressed in breast cancer as prognostic and therapeutic targets” (priority 2001, published 2003).

System: primary invasive breast cancer
Assay: Clinical tumor response (WHO criteria) in randomized Phase III neoadjuvant trial of letrozole versus tamoxifen; patients with profiled biopsies
Type: in vivo, human
Conditions: clinical outcome of patients with profiled pre-treatment biopsies; postmenopausal women; response by palpation at 4 months
Source text: Definitions of Objective Response Used in the Letrozole (FEMARA™) vs. Tamoxifen Comparison Study
1. Complete Response (CR): The disappearance of all known disease, determined by 2 observations not less than 4 weeks apart.
2. Partial Response (PR): A 50% or more decrease in total tumor size of the lesions which have been measured to determine the effect of therapy by 2 observations not less than 4 weeks apart. In addition there can be no appearance of new lesions or progression of any lesion.
4. Progressive Disease (PD): A 25% or more increase in the size of one or more measurable lesions, or the appearance of new lesions.
Clinical Response Assessment
The primary efficacy variable was tumor response, assessed by clinical examination using World Health Organization (WHO) criteria (see, WHO Handbook for Reporting Results of Cancer Treatment). It was defined as the percentage of patients in each treatment group with a CR or PR as determined clinically in the breast by palpation at 4 months. Possible responses were CR, PR, NC, PD or not assessable/not evaluable (NA/NE). Palpable ipsilateral axillary lymph nodal involvement downgraded a clinical CR in tumor. Other factors were also considered such the percentage of patients who underwent breast-conserving surgery (quadrantectomy/lumpectomy) instead of mastectomy. Patients who became inoperable, or who remained inoperable at 4 months, were counted as treatment failures.
Twenty-one RNA samples were extracted from 14-gauge needle core biopsies collected before initiation of neoadjuvant endocrine therapy from patients enrolled in a randomized Phase III trial of letrozole (FEMARA™, Novartis Pharma, Basal Switzerland) versus tamoxifen for postmenopausal women with primary invasive breast cancer ineligible for breast conserving surgery. RNA was extracted from an additional 30 primary breast adenocarcinomas collected in Sweden, one additional ESR1+breast tumor surgical biopsy, two HUVEC samples, two samples from glioblastoma cell line U373-MG and one MCF7 sample using Trizol (Life Technologies, Gaithersburg, Md.). The clinical samples were collected after informed consent had been obtained according to protocols approved by local ethics committees. RNA was purchased for two samples, an infiltrating Stage III duct carcinoma (Ambion, Austin, Tex.) and a pool of two normal breast tissues (Clontech, Palo Alto, Calif.). The total number of samples prepared was 59 including 53 breast cancer biopsies and one pooled normal breast sample. Total RNA was purified using QIAGEN RNEASY™ columns (Qiagen, Valencia, Calif.), processed and hybridized to the HUGENE™ FL 6800 Array (Affymetrix, Santa Clara, Calif.), as described by Lockhart et al., Nat. Biotechnol., Vol. 14, pp. 1675-1680 (1996).
In another aspect of the invention 136 breast biopsies from 53 patients were obtained. RNA was extracted from 116 biopsies. Expression profiles were generated for 43 biopsies from 35 patients. Predictive markers of endocrine therapy responsiveness in breast tumors were identified. The breakdown of the profiled biopsies from the pre-letrozole (FEMARA™) treatments and the patient's clinical outcome was as follows: four patients with CR, nine patients with PR, four patients with NC and four patients with PD.
For the group treated with tamoxifen there were no patients in the CR category, 10 patients with PR, seven patients with NC and four patients with PD.

Compound | patients with CR (complete response) | patients with NC (no change) | patients with PD (progressive disease) | patients with PR (partial response)
CC/C(=C(\c1ccccc1)c1ccc(OCCN(C)C)cc1)c1ccccc1 [tamoxifen] | no patients | seven | four | 10 patients
N#Cc1ccc(C(c2ccc(C#N)cc2)n2cncn2)cc1 [letrozole] | four | four | four | nine
